In patent publication US7615651B2, “Diaryl, dipyridinyl and aryl-pyridinyl derivatives and uses thereof” (Pfizer Inc., priority 2006, dated 2009):
Structures can show the parent of a compound that is named as a salt. Where two headings read alike, the source gives them in different places.

Tests used:
[1] = target: T1, opioid receptor kappa (Homo sapiens, UniProt P41145); assay: GTPγ[35S] binding assay, antagonism of dynorphin-A; assay type: biochemical
T1 construct: expressed in transfected cells
How it was run: (§1)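 Membranes with […] GTPγ[35S] in Tris pH 7.4 buffer with MgCl2, NaCl, 30 μM GDP; antagonist (10^−10–10^−5 M) preincubated 10 min at 30 °C, then challenged with BW-373U86 1 nM (delta), dynorphin-A 10 nM (kappa) or endorphin 1 μM (mu) for 1 h at 30 °C. Scintillation read-out; Ki derived.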

[2] = target: T2, opioid receptor delta (Homo sapiens, UniProt P41143); assay: GTPγ[35S] binding assay, antagonism of BW-373U86; assay type: biochemical
T2 construct: expressed in transfected cells
How it was run: as §1

[3] = Spontaneous food intake model; assay type: in vivo, Sprague-Dawley rats; details: rats dosed before onset of dark cycle, compared with vehicle
Protocol: Male Sprague-Dawley rats may be obtained from Charles River Laboratories, Inc. (Wilmington, Mass.). The rats were individually housed and fed powdered chow. They were maintained on a 12 hour light/dark cycle and received food and water ad libitum. The animals were acclimated to the vivarium for a period of one week before testing is conducted. Rats were transferred to individual test cages 30 hours before the study. The rats were administered test compound or vehicle alone (no compound) 15-30 minutes prior to the onset of the dark cycle. The test compounds were dosed at ranges between 0.1 and 100 mg/kg depending upon the compound. The standard vehicle was 0.5% (w/v) methylcellulose or 30% β-cyclodextrin in water and the standard route of administration was oral. However, different vehicles and routes of administration are used to accommodate various compounds when required. Food intake was monitored using an automated Columbus Instruments system (Columbus, Ohio). Individual rat food intake was recorded continuously at 10-minute intervals, starting at the time of dosing, for a period of at least 12 hours. Compound efficacy was determined by comparing the food intake pattern of compound-treated rats to vehicle.

[4] = target: T3, opioid receptor mu (Homo sapiens, UniProt P35372); assay: GTPγ[35S] binding assay, antagonism of endorphin; assay type: biochemical
T3 construct: expressed in transfected cells
How it was run: as §1

[5] = average Ki, antagonism of dynorphin-A (10 nM) stimulated GTPγ[35S] binding, kappa opioid receptor membranes, read-out: Kappa functional (GTPγ[35S] binding Ki)
[6] = average Ki, antagonism of BW-373U86 (1 nM) stimulated GTPγ[35S] binding, delta opioid receptor membranes, read-out: Delta functional (GTPγ[35S] binding Ki)
[7] = average Ki, antagonism of endorphin (1 μM) stimulated GTPγ[35S] binding, mu opioid receptor membranes, read-out: Mu functional (GTPγ[35S] binding Ki)
[8] = read-out: Kappa functional (GTPγ[35S] binding Ki)
[9] = read-out: Delta functional (GTPγ[35S] binding Ki)
[10] = read-out: Mu functional (GTPγ[35S] binding Ki)
[11] = read-out: Kappa functional Ki (GTPγ[35S] binding)
[12] = read-out: Delta functional Ki (GTPγ[35S] binding)
[13] = read-out: Mu functional Ki (GTPγ[35S] binding)

T2 sequence (P41143 whole entry): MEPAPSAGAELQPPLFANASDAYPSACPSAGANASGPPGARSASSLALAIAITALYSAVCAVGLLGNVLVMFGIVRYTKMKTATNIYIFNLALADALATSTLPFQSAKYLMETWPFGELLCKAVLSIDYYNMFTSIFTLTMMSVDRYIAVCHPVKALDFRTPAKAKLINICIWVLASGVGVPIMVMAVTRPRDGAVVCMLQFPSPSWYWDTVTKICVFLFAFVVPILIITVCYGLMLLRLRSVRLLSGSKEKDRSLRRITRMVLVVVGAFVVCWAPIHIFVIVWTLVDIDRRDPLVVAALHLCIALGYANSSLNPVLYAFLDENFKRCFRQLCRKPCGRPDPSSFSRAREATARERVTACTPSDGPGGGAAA
T1 sequence (P41145 whole entry): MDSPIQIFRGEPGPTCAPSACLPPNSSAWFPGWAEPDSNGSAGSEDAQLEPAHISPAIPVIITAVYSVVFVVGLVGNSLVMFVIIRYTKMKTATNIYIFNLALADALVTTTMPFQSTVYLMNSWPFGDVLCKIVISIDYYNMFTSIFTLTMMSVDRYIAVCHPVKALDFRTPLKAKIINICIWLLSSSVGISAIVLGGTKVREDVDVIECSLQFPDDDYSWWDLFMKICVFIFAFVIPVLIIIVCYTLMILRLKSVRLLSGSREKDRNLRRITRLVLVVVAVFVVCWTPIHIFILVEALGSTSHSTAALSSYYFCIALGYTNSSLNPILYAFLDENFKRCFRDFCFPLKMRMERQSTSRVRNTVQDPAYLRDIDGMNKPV
T3 sequence (P35372 whole entry): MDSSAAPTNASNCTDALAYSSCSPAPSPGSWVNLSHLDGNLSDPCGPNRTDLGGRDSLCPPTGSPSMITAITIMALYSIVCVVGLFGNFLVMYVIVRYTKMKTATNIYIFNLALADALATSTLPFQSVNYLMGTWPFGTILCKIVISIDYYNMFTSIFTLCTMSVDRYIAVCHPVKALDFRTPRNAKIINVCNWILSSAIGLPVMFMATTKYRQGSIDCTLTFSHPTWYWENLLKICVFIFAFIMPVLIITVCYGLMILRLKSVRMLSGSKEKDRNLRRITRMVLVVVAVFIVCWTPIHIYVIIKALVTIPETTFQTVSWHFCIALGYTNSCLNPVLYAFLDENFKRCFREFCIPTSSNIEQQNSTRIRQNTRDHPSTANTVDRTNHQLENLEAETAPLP

Compound | Ki [1, 8] | Ki [2, 9] | Ki [4, 10] | Ki [1, 11] | Ki [2, 12] | Ki [4, 13] | further results
Cc1cc(C(N)=O)ccc1-c1ccc(CNCCCc2ccccc2)cc1.Cl [4B-08] |  |  |  |  |  |  | Ki [1, 5]: 2.19 nM; Ki [2, 6]: 0.838 nM; food intake [3]: significant reduction in food intake; Ki [4, 7]: 2.84 nM
Cc1cc(C(N)=O)ccc1-c1ccc(CNCCC(C)C)c(Cl)c1 [E3-01, hydrochloride salt] | 1.73 nM | 1.53 nM | 2.82 nM |  |  |  | food intake [3]: significant reduction in food intake
Cc1cc(C(N)=O)ccc1-c1ccc(CNCCC(C)C)cc1 [E4-01, 2-Methyl-4′-[(3-methyl-butylamino)-methyl]-biphenyl-4-carboxylic acid amide] |  |  |  |  |  |  | Ki [1, 5]: 2.4 nM; Ki [2, 6]: 20 nM; food intake [3]: significant reduction in food intake; Ki [4, 7]: 6.5 nM
CC1(C)OCC(CNCc2ccc(-c3cccc(C(N)=O)c3)c(Cl)c2)O1 (stereo not drawn) [4A-10] |  |  |  |  |  |  | Ki [1, 5]: 31.3 nM; Ki [2, 6]: 353 nM; Ki [4, 7]: 8.49 nM
CC(C)CCNCc1ccc(-c2cccc(C(N)=O)c2)c(C#N)c1 [1A-04] |  |  |  |  |  |  | Ki [1, 5]: 28.8 nM; Ki [2, 6]: 13.8 nM; Ki [4, 7]: 4.64 nM
CC(C)CCNCc1ccc(-c2cccc(C(N)=O)c2)cc1O [1A-06] |  |  |  |  |  |  | Ki [1, 5]: 101 nM; Ki [2, 6]: 0.0351 nM; Ki [4, 7]: 52.3 nM
Cc1cc(C(N)=O)ccc1-c1ccc(CNCCC(C)C)c(F)c1 [1B-08] |  |  |  |  |  |  | Ki [1, 5]: 1.89 nM; Ki [2, 6]: 1.97 nM; Ki [4, 7]: 3.24 nM
Cc1cc(C(N)=O)cc(C)c1-c1ccc(CNCCC(C)C)cc1 [4B-14] | 29.6 nM | 6.27 nM | 86.5 nM |  |  |  | 
CC(C)CCNCc1ccc(-c2ncc(C(N)=O)cc2Cl)cc1 [4C-01] |  |  |  |  |  |  | Ki ([1]; average Ki, antagonism of dynorphin-A (10 nM) at kappa opioid receptor membranes, read-out: Kappa functional Ki (GTPγ[35S] binding)): 15.6 nM; Ki ([2]; average Ki, antagonism of BW-373U86 (1 nM) at delta opioid receptor membranes, read-out: Delta functional Ki (GTPγ[35S] binding)): 33.8 nM; Ki ([4]; average Ki, antagonism of endorphin (1 μM) at mu opioid receptor membranes, read-out: Mu functional Ki (GTPγ[35S] binding)): 28 nM
Cc1cc(C(N)=O)ccc1-c1c(C)cc(CNCCC(C)C)cc1Cl [4B-83] |  |  |  | 3.71 nM | 1.66 nM | 0.429 nM | 
Cc1cc(C(N)=O)cnc1-c1ccc(CNC2Cc3ccccc3C2)cc1 [4C-03] |  |  |  | 0.982 nM | 0.822 nM | 0.201 nM | 
CC(C)CCNCc1ccc(-c2ccc(C(N)=O)cc2O)cc1 [4B-47] |  |  |  | 80.6 nM | 543 nM | 549 nM | 
Cc1cc(C(N)=O)ccc1-c1ccc(CNCc2cccc(Cl)c2)cc1 [4B-10] | 1.58 nM | 0.602 nM | 0.94 nM |  |  |  | 
CS(=O)(=O)Nc1ccc(-c2ccc(CNC3Cc4ccccc4C3)c(F)c2)cc1 [8B-02] |  |  |  | 582 nM | 39.8 nM | 9.29 nM | 
Cc1cc(C(N)=O)ccc1-c1ccc(CN[C@H]2CCc3ccccc32)cc1 [4B-34] |  |  |  | 0.512 nM | 1.09 nM | 1.08 nM | 
Cc1cc(C(N)=O)ccc1-c1ccc(CNC2CCOc3c(C)cccc32)cc1 (stereo not drawn) [4B-22] | 4.92 nM | 5.1 nM | 7.56 nM |  |  |  | 
Cc1cc(C(N)=O)ccc1-c1ccc(CNC2(c3cccc(Cl)c3)CC2)cc1 [4B-23] | 14.2 nM | 46.3 nM | 266 nM |  |  |  | 

Second part, led by results:

Ki [1, 8] | Ki [2, 9] | Ki [4, 10] | Ki [1, 11] | Ki [2, 12] | Ki [4, 13] | Compound | further results
 |  |  | 1.77 nM | 4.02 nM | 7.3 nM | NC(=O)c1ccc(-c2ccc(CNCCC3CCOCC3)c(F)c2)c(Cl)c1 [4B-58] | 
26.8 nM | 16.9 nM | 48.4 nM |  |  |  | CC(C)CCNCc1ccc(-c2c(F)cc(C(N)=O)cc2F)cc1 [4B-12] | 
11 nM | 3.27 nM | 1.16 nM |  |  |  | NC(=O)c1cccc(-c2ccc(CNCCC3CCCCO3)cc2Cl)c1 (stereo not drawn) [4A-13] | 
0.256 nM | 0.0326 nM | 0.0717 nM |  |  |  | Cc1cc(C(N)=O)ccc1-c1ccc(CNC2Cc3ccccc3C2)c(F)c1 [1B-10] | 
14.7 nM | 24.3 nM | 9.03 nM |  |  |  | NC(=O)c1cccc(-c2ccc(CNC[C@@H]3CCCO3)cc2Cl)c1 [4A-07] | 
6.1 nM | 6.12 nM | 16.2 nM |  |  |  | CC(C)CCNCc1ccc(-c2ccc(C(N)=O)cc2Cl)cc1 [4B-29] | 
 |  |  | 15.4 nM | 14.5 nM | 37 nM | Cc1cc(C(N)=O)ccc1-c1cc(F)c(CNC2CCCC2)c(F)c1 [4B-54] | 
 |  |  | 2.56 nM | 3.58 nM | 6.4 nM | Cc1cc(CNCCC(C)C)ccc1-c1ccc(C(N)=O)cc1Cl [4B-62] | 
 |  |  | 32.1 nM | 4.92 nM | 8.62 nM | Cc1ncsc1CCNCc1ccc(-c2cccc(C(N)=O)c2)c(Cl)c1 [6A-08] | 
